Broadly, the IC50 is the midpoint of a concentration-inhibition curve.

We go through five compounds from patent US5338758A (Schering Corporation, priority 1992, dated 1994).

For data set [1], the system named is PAF-Induced Human Platelet Aggregation. Description: PAF-induced human platelet aggregation assay (in vitro PAF antagonism). In kind it is cell-based. To be noted: for IC50: human platelet-rich plasma, 37° C., 2 min preincubation, PAF 1-5×10^-8 M, 0.1% DMSO, read-out: IC50 (PAF activity, inhibition of PAF-induced human platelet aggregation). On the procedure:
Preparation of Platelet-Rich Plasma (PRP): Human blood (50 ml) is collected from healthy male donors. The blood is mixed with an anticoagulant solution (5 ml) containing sodium citrate (3.8%) and dextrose (2%). Blood is centrifuged at 200×g for 20 min. and the supernatant PRP is carefully transferred into a polypropylene tube. Platelet-poor-plasma (PPP) is prepared by centrifuging PRP at 800×g for 15 min. in a Beckman Microfuge B. PRP is used within 3 hours of drawing the blood.
Platelet Aggregation Assay: When an aggregating agent such as PAF is added to PRP, platelets aggregate. An aggregometer quantifies this aggregation by measuring light (infra-red) transmission through PRP and comparing it to transmission through PPP. The aggregation assays are performed using a dual-channel aggregometer (Model 440, Chrono-Log Corp., Havertown, Pa.). PRP (0.45 ml) in aggregometer curettes is continually stirred (37° C.). Solutions of test compounds in DMSO or vehicle alone (final concentration of DMSO=0.1% v/v) are added to the PRP, and, after incubation for 2 min., 10- 15 μl aliquots of PAF solution are added so as to achieve a final concentration of 1-5×10^-8 M. Incubations are continued until the increase in light transmission reaches a maximum (usually about 2 min). Values for inhibition are calculated by comparing maximal aggregation obtained in the absence and the presence of the compound. […]

The nature of a further data set: Solubility. The class given is physicochemical.
In a further data set the test system is PAF. To be noted: disclosed in JP 03,216,197; cited from earlier work.

Structures are written as SMILES.

On to `C/C1=C\CCC2(C)O[C@H]2C(=O)C2=CC[C@H](C)[C@@](C)(CC1)[C@@H]2C=O` (relative stereo) [Compound I], for which, in data set [1], the “PAF antagonistic properties (in words)” value is “antagonistic properties” and the IC50 was 6.96 µM. Also, in the data set “Solubility”, the solubility in acetone entry was “partially soluble”, the solubility in chloroform entry is “soluble”, the solubility in dichloromethane entry is listed as “soluble” and the “solubility in dimethyl sulfoxide” value is “soluble”. Further, in “Solubility”, the “solubility in ethyl acetate” value is “partially soluble”, the solubility in hexane result is recorded as “insoluble”, the solubility in methanol result is reported as “partially soluble” and the “solubility in petroleum ether” value is recorded as “insoluble”. In the data set “Solubility”, the solubility in water result was “insoluble”.
`CC1=CCC2=CCC(C)C(C)(CCC(C)=CCC1)C2C` (centres unmarked) [Compound IV]: in data set [1], the “PAF antagonistic properties (in words)” value is recorded as “antagonistic properties” and the IC50 was greater than 36 µM. In the data set “Solubility”, the solubility in acetone result was “soluble”, the solubility in chloroform entry is given as “soluble”, the solubility in dichloromethane entry is recorded as “soluble” and the “solubility in dimethyl sulfoxide” value is given as “partially soluble”. In “Solubility”, the “solubility in ethyl acetate” value was “partially soluble”, the solubility in hexane entry is recorded as “partially soluble”, the solubility in methanol result was “partially soluble” and the solubility in water result is recorded as “insoluble”.
In the case of `CC1=CCCC2(C)OC2C2(O)OCC3=C2C(O)CC(C)C3(C)CC1` (centres unmarked) [III], in data set [1], the “PAF antagonistic properties (in words)” value is recorded as “antagonistic properties” and the IC50 worked out at 1.26 µM. For the same compound, in the data set “Solubility”, the solubility in acetone result is “partially soluble”, the solubility in chloroform entry is on record as “soluble”, the solubility in dichloromethane entry is reported as “soluble” and the “solubility in dimethyl sulfoxide” value is reported as “soluble”. For the same compound, in the data set “Solubility”, the “solubility in ethyl acetate” value was “partially soluble”, the solubility in hexane result was “insoluble”, the solubility in methanol entry is listed as “partially soluble” and the “solubility in petroleum ether” value is “insoluble”. In addition, the solubility in water result in “Solubility” is on record as “insoluble”.
Turning to `CC1=CCCC2(C)OC2C2(O)OCC3C2=C(O)CC(C)C3(C)CC1` (centres unmarked) [II], in data set [1], the “PAF antagonistic properties (in words)” value was “antagonistic properties” and the IC50 turned out to be 1.68 µM. In addition, in “Solubility”, the solubility in acetone entry was “partially soluble”, the solubility in chloroform result is recorded as “soluble”, the solubility in dichloromethane entry is reported as “soluble” and the “solubility in dimethyl sulfoxide” value is “soluble”. Besides, in the data set “Solubility”, the “solubility in ethyl acetate” value was “partially soluble”, the solubility in hexane entry is given as “insoluble”, the solubility in methanol result is on record as “partially soluble” and the “solubility in petroleum ether” value is “insoluble”. For the same compound, the solubility in water entry in the data set “Solubility” is “insoluble”.
Take `CC1=CCCC2(C)OC2C(=O)C2=CC(O)C(C)C(C)(CC1)C2(C)O` (centres unmarked) [Phomactin B, phomactin B]: the “PAF antagonist activity (in words)” value with PAF is “PAF antagonist”.
